# Data from PMC9944328 (Nature Communications, 2023).
# Target: SSTR2 (Homo sapiens, UniProt P30874)
# Test: SSTRs Gi-mediated cAMP inhibition, GloSensor, HEK293, 5 μM forskolin, 15 min room temperature (SSTR2 wild-type);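 for Bottom (best-fit value): normalized to the maximal wild-type response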;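 for Bottom (best-fit): normalized to the maximal wild-type response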;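 for Span (best-fit value): normalized to the maximal wild-type response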;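 for Span (best-fit): normalized to the maximal wild-type response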;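 for Top (best-fit value): normalized to the maximal wild-type response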;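 for Top (best-fit): normalized to the maximal wild-type response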
# Type: cell-based
# Set-up: Best-fit Top, cAMP inhibition / Span, cAMP inhibition / Best-fit Bottom / Best-fit Top / Best-fit Span / Bottom / Span (best-fit value), cAMP inhibition / Top (best-fit value), cAMP inhibition: scale not given here
# Method: The levels of the intracellular 3′, 5′-cyclic AMP (cAMP) were measured by the GloSensor cAMP assay (Promega) as described in the previous studies[28],[41] which has been widely used. The human full-length SSTRs and mutants were cloned into the pcDNA3.1+ vector with a HA signal sequence followed by a Flag tag at the N-terminus. HEK293 cells (ATCC, CRL-1573) were seeded into 6-well microplates at a density of 1.0 × 10^6 cells/well and cultured for 24 h at 37 °C with 5% CO2. Cells were then co-transfected with SSTR wild-type or mutants and GloSensor plasmids. After 24 h of transfection, the cells were dissociated with TrypLE™ Express Enzyme (1X) (Thermo Fisher Scientific) and collected by centrifugation at 500 × g for 5 min. Then the collected cells were suspended in Hank’s balanced salt solution [HBSS (Thermo Fisher Scientific)] supplemented with […] (YEASEN), and then the suspension cells were seeded into 96-well plates with 90 μl/well. After incubating at room temperature for 40 min, 5 μM forskolin and ligands diluted in HBSS were added to each well and the plates were incubated at room temperature for 15 min. […] were measured using the Synergy H1 microplate reader (BioTek) and the data presented are means of at least three independent experiments.
# Sequence of SSTR2 (P30874 whole entry): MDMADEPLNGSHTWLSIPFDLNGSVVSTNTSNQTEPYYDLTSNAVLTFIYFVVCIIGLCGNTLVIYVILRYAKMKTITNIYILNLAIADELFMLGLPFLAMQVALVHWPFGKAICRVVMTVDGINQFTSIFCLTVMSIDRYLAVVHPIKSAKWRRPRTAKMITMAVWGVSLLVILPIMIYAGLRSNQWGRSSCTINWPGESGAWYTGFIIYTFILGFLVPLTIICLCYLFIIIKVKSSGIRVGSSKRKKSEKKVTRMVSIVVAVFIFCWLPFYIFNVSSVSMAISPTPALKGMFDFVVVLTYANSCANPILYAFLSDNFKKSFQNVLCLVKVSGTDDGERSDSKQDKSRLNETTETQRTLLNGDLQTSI
structure (smiles),measurement,setting,value
C[C@@H](O)[C@@H]1NC(=O)[C@H](CCCCN)NC(=O)[C@@H](Cc2c[nH]c3ccccc23)NC(=O)[C@H](Cc2ccccc2)NC(=O)[C@@H](NC(=O)[C@H](N)Cc2ccccc2)CSSC[C@@H](C(=O)N[C@H](CO)[C@@H](C)O)NC1=O [octreotide],Emax,"HEK293, Gi signaling, SSTR2 WT, n=6, read-out: Emax",100%
same,Activation potency level,"SSTR2, Fig. 1",nanomolar level
same,Bottom (best-fit value),"WT-1, run 1, batch of I284A",6.42
same,Span (best-fit value),"WT-1, run 1, batch of I284A",102.3
same,Top (best-fit value),"WT-1, run 1, batch of I284A",108.8
same,Bottom (best-fit value),"WT-1, run 1, batch of P286A",0.4925
same,Span (best-fit value),"WT-1, run 1, batch of P286A",108.4
same,Top (best-fit value),"WT-1, run 1, batch of P286A",108.9
same,Bottom (best-fit value),"WT-1, run 1, batch of S285A",-1.909
same,Span (best-fit value),"WT-1, run 1, batch of S285A",108.3
same,Top (best-fit value),"WT-1, run 1, batch of S285A",106.4
same,Bottom (best-fit value),"WT-1, run 1, batch of T194A",5.269
same,Bottom (best-fit value),"WT-1, run 1, batch of T287A",5.269
same,Span (best-fit value),"WT-1, run 1, batch of T287A",95.18
same,Top (best-fit value),"WT-1, run 1, batch of T287A",100.5
same,LogEC50 (best-fit value),"WT-1, run 1, batch of W188A",-10.06
same,Span (best-fit value),"WT-1, run 1, batch of W188A",114.6
same,Top (best-fit value),"WT-1, run 1, batch of W188A",120.5
same,Best-fit Bottom,WT-1 of D295A set,-0.7512
same,Best-fit Span,WT-1 of D295A set,96.76
same,Best-fit Top,WT-1 of D295A set,96
same,Span (best-fit),WT-1 of F208A set,95.18
same,Bottom (best-fit),WT-1 of F265A set,9.705
same,Top (best-fit),WT-1 of F265A set,105
same,Bottom (best-fit),WT-1 of F272A set,5.108
same,Span (best-fit),WT-1 of F272A set,89.16
same,Top (best-fit),WT-1 of F272A set,94.27
same,Best-fit Bottom,WT-1 of F294A set,5.269
same,Best-fit Span,WT-1 of F294A set,95.18
same,Best-fit Top,WT-1 of F294A set,100.5
same,Best-fit Bottom,WT-1 of K291A set,7.96
same,Best-fit Span,WT-1 of K291A set,79.36
same,Best-fit Top,WT-1 of K291A set,87.32
same,Best-fit Bottom,WT-1 of L290A set,-1.909
same,Best-fit Span,WT-1 of L290A set,108.3
same,Best-fit Top,WT-1 of L290A set,106.4
same,Bottom (best-fit),WT-1 of N276A set,7.96
same,Span (best-fit),WT-1 of N276A set,79.36
same,Top (best-fit),WT-1 of N276A set,87.32
same,Bottom (best-fit),WT-1 of P220A set,21.28
same,Span (best-fit),WT-1 of P220A set,73.55
same,Top (best-fit),WT-1 of P220A set,94.83
same,Best-fit Bottom,WT-1 of S279A set,5.108
same,Best-fit Span,WT-1 of S279A set,89.16
same,Best-fit Top,WT-1 of S279A set,94.27
same,Bottom (best-fit),WT-1 of W269A set,6.42
same,Span (best-fit),WT-1 of W269A set,102.3
same,Top (best-fit),WT-1 of W269A set,108.8
same,Best-fit Bottom,WT-1 of Y302A set,6.42
same,Best-fit Span,WT-1 of Y302A set,102.3
same,Best-fit Top,WT-1 of Y302A set,108.8
same,Bottom (best-fit value),"WT-2, run 2, batch of I284A",-0.5171
same,Span (best-fit value),"WT-2, run 2, batch of I284A",111.1
same,Top (best-fit value),"WT-2, run 2, batch of I284A",110.6
same,Bottom (best-fit value),"WT-2, run 2, batch of P286A",4.88
same,LogEC50 (best-fit value),"WT-2, run 2, batch of P286A",-10.01
same,Span (best-fit value),"WT-2, run 2, batch of P286A",102.3
same,Top (best-fit value),"WT-2, run 2, batch of P286A",107.2
same,Bottom (best-fit value),"WT-2, run 2, batch of S285A",5.269
same,Span (best-fit value),"WT-2, run 2, batch of S285A",95.18
same,Top (best-fit value),"WT-2, run 2, batch of S285A",100.5
same,Bottom (best-fit value),"WT-2, run 2, batch of T194A",2.714
same,Bottom (best-fit value),"WT-2, run 2, batch of T287A",-7.526
same,Span (best-fit value),"WT-2, run 2, batch of T287A",120.1
same,Top (best-fit value),"WT-2, run 2, batch of T287A",112.6
same,Bottom (best-fit value),"WT-2, run 2, batch of W188A",4.88
same,LogEC50 (best-fit value),"WT-2, run 2, batch of W188A",-10.01
same,Span (best-fit value),"WT-2, run 2, batch of W188A",102.3
same,Top (best-fit value),"WT-2, run 2, batch of W188A",107.2
same,Best-fit Bottom,WT-2 of D295A set,-0.7512
same,Best-fit Span,WT-2 of D295A set,96.76
same,Best-fit Top,WT-2 of D295A set,96
same,Span (best-fit),WT-2 of F208A set,79.83
same,Bottom (best-fit),WT-2 of F265A set,21.28
same,Span (best-fit),WT-2 of F265A set,73.55
same,Top (best-fit),WT-2 of F265A set,94.83
same,Bottom (best-fit),WT-2 of F272A set,5.269
same,Span (best-fit),WT-2 of F272A set,95.18
same,Top (best-fit),WT-2 of F272A set,100.5
same,Best-fit Bottom,WT-2 of F294A set,2.714
same,Best-fit Span,WT-2 of F294A set,101.1
same,Best-fit Top,WT-2 of F294A set,103.8
same,Best-fit Bottom,WT-2 of K291A set,0.9124
same,Best-fit Span,WT-2 of K291A set,101.5
